Assay results as given in ChEMBL document CHEMBL3507680, “University of Dundee, Gates Library screen for HepG2 cell viability”.

Assay: Human HepG2 cell viability assay in 384 well format
Type: toxicity, cell-based
Design: dose 125 nL, time 70.5 hour; cytotoxicity at 70.5 h: concentration not given beside the values
Conditions: HepG2 cells, read-out: Inhibition

SMILES | cytotoxicity at 70.5 h [%]
O=C(CCc1nccs1)N1CCN(c2ccccc2F)CC1 | 34.9
CCOc1ccnc(N2CCN(C(=O)c3ccn(C)c(=O)c3)CC2)n1 | -1.73
O[C@H]1CC[C@@H](Cc2cc(-c3ccccc3)on2)O[C@@H]1CNCC1CC1 | -5.25
CN(CC(=O)NCc1cccnc1N1CCCCC1)C(=O)c1cccs1 | 0.0514
Cc1cc(C(=O)N2CCC(Nc3cccnc3)CC2)c(C)s1 | 2.17
Cc1noc(C)c1C(=O)NCC(c1ccsc1)N(C)C (stereo not drawn) | -8.5
COc1ccccc1CN1C(=O)O[C@@H]2CN(c3nc(C)cnc3C)C[C@@H]21 | -3.32
O=C(CCc1nnc2ccccn2c1=O)NCc1ccc2c(c1)OCO2 | 25.1
COc1ncc(CN2CCOC(C)(C(=O)N3CCOCC3)C2)cn1 (stereo not drawn) | -4.39
Cc1nc(CN(Cc2ccc3c(c2)OCCO3)C2CCCC2)no1 | -7.64
Cc1ccc(F)c(NS(=O)(=O)c2cc(C(=O)O)oc2C)c1 | -10
N#Cc1ccc(CN2CCC(CN3CCOCC3)C2)cc1 (stereo not drawn) | -5.35
COc1cccc(CN2C[C@@H](F)[C@@H](OCc3nc4cnccc4[nH]3)C2)c1 | 2.35
CC(C(=O)N1CCOCC1)S(=O)(=O)Cc1noc(C(C)(C)C)n1 (stereo not drawn) | 7.07
Cc1cc(NC(N)=O)ccc1OCC(F)(F)F | -2.1
O=C1CC(c2ccc3c(c2)OCO3)c2snc(C(=O)O)c2N1 (stereo not drawn) | -10.6
Cc1nnc(N2CCC(CNC(=O)OC(C)(C)C)CC2)c(C#N)c1C | 1.28
CC(CNc1cncc(-n2cccn2)n1)N(C)c1ccccc1 (stereo not drawn) | 1.39
CCN(CC)C(=O)CSc1ncc[nH]1 | -8.92
CS(=O)(=O)N1CCC(c2nnc(CN3CCCC3)n2C2CC2)CC1 | 0.642
CCN1CCCC1CN(Cc1ccon1)CC1CCN(CCOC)CC1 (stereo not drawn) | -9.79
Cn1nc(C(=O)NCc2cccnc2)c2c1CCS(=O)(=O)C2 | 24.8
Cc1ccc(-c2nnc(CN3CCOCC(CO)C3)o2)n1C (stereo not drawn) | -3.57

SMILES | cytotoxicity at 70.5 h [%]
O=S1(=O)NCC2(CCN(c3ncc(F)cn3)CC2)COc2ccccc21 | -0.496
CS(=O)(=O)CCSc1n[nH]c(-c2ccc3c(c2)CCC3)n1 | 3.91
COc1ncccc1CN1CCn2c(Cn3cncn3)cnc2C1 | 20.3
CCCNC(=O)CN1CCC(NC(=O)c2cc(CC)ccc2O)CC1 | -6.46
O=C(c1c(O)cnc2ccccc12)N1CCCSCC1 | -1.19
Cc1nc(C)n(C2CCCN(C(=O)c3ccc(F)c(F)c3)C2)n1 (stereo not drawn) | -2.21
CC(NC(=O)NCCCN(C)S(C)(=O)=O)c1ccc(Cl)cc1 (stereo not drawn) | -7.7
Cc1nccn1CCCN1CCC(c2nccn2CC2CCC2)CC1 | -3.77
Cc1cnn(CC(C)NCC(=O)NCCc2cccs2)c1 (stereo not drawn) | 10.8
O=C(NCC1CC1)[C@@H]1CCO[C@@H]2CCN(Cc3ccco3)C[C@H]21 | 15.7
Cc1cc(C)n(CC(C)NCCN2CCc3ccccc32)n1 (stereo not drawn) | -3.59
Fc1ccc(Br)c(NCc2nnsc2Cl)c1 | -2.39
Cc1cnccc1N1CCN(C(=O)CCCN2CCCCC2)CC1 | -3.26
CN(Cc1nnc2n1CCC2)C(=O)Cc1ccc2c(c1)OCCO2 | -4.37
CCCS(=O)(=O)N1C[C@H](N(C)Cc2ccco2)[C@@H]2OCCC[C@@H]21 | -6.06
CC(C)Cc1noc(C2CCCN(C(=O)CCc3cnn(C)c3)C2)n1 (stereo not drawn) | -8.4
O=C(CCNc1ncccn1)NCCc1ccn(-c2ccccc2)n1 | 22
COc1ccc(CN2CCC3(CC2)C(C(=O)O)CC(=O)N3C)cc1Cl (stereo not drawn) | -3.23
CC(C)Oc1ccc(C(=O)N2CC[C@H](O)[C@@H](n3ccnc3)CC2)cc1 | 18.5
Cc1cnc(CN2CCCC(c3cc(C)[nH]n3)C2)cn1 (stereo not drawn) | 15.7
CCOCC1CN(Cc2cnn(C)c2)Cc2nn(CC3CC3)cc21 (stereo not drawn) | -10.4
CC(C)OCc1ncn2c1CN(CC1CC1)CCC2 | 20.2
Cc1cccc(C(C(=O)NCc2nc(-c3ncccn3)no2)N(C)C)c1 (stereo not drawn) | -2.35

SMILES | cytotoxicity at 70.5 h [%]
CC(=O)NC[C@]1(O)CCN(C(=O)c2ccc(F)c(Cl)c2)C[C@H]1O | -6.22
Cc1nc(C)n(CC2CN(CCC(=O)N3CCCCC3)CCO2)n1 (stereo not drawn) | -6.29
Cc1cnn(CC(C)NCC(=O)Nc2ccc(Cl)cn2)c1 (stereo not drawn) | -2.39
CCN(CC)Cc1ccc(C(=O)NC2CCc3cc(Br)ccc32)o1 (stereo not drawn) | -24.6
Cc1noc(C[C@@H]2COC[C@H]3CN(C(=O)C4=CCCC4)C[C@@H]23)n1 | -13.5
CC(C)n1cnnc1CN(C)CC1CCCNC1 (stereo not drawn) | -5.56
Cn1ncc(N2CCC(CNC3CC(C)(C)CC(C)(C)C3)C2)cc1=O (stereo not drawn) | 7.5
Cc1cnc(CN(C)C2CCN(Cc3nnc(C4CC4)o3)C2)o1 (stereo not drawn) | -4.32
CC(C)(C)CN1CCCC(O)(CN2CCc3[nH]ncc3C2)C1=O (stereo not drawn) | -1.48
O=C(c1cccnc1O)N(Cc1cccs1)CC1CCCO1 (stereo not drawn) | -11.9
Cc1nccn1-c1ccc(C(C)NCc2cc[nH]n2)cc1 (stereo not drawn) | -0.399
Cn1cc(-c2cnc3n2CCC32CCN(S(C)(=O)=O)CC2)cn1 | -0.823
CCc1cnc(NCC(c2cccnc2)N2CCOCC2)nc1 (stereo not drawn) | -1.2
N#Cc1cccc(N2CCCC3(CN(C(=O)NC4CC4)CCO3)C2)c1 (stereo not drawn) | -1.09
O=C1CN(C(=O)c2cccc(OCc3cscn3)c2)CCN1 | -1.69
Cc1csc(C(=O)NCCN2CCC(c3cccs3)CC2)c1 | 35.6
CC(C)(C)[S+]([O-])CCNC(=O)c1ccc(Cl)c2cccnc12 (stereo not drawn) | -6.1
Cn1cnc(S(=O)(=O)N2CCO[C@H]3[C@H](OCC4CC4)CC[C@@H]32)c1 | -2.37
Cc1n[nH]c(C2CN(C(=O)c3cc(C4CC4)[nH]n3)CCO2)n1 (stereo not drawn) | 4.51
Cc1cccc(CNC(=O)Nc2cc(C(F)(F)F)c[nH]c2=O)n1 | -6.24
CCOCc1cncc2c1CCN(C(=O)c1cccc(C#N)c1)C2 | -1.85
CSC1(CNc2ncc(Br)cn2)CCOCC1 | -0.0448
Cc1cc(C2CCCN2CC(=O)N(CCC#N)c2ccccc2F)on1 (stereo not drawn) | -12.2

SMILES | cytotoxicity at 70.5 h [%]
CCCc1nccn1CCn1cnc2ccsc2c1=O | 1.1
c1cc(CN2CCC(Cc3noc(C4CC4)n3)CC2)c2c(c1)OCO2 | 0.325
Cc1nonc1CN1CC[C@@](O)(C2CCOCC2)[C@H](C)C1 | -11
c1ccc(OC[C@H]2CCC[C@]23CN(Cc2nccs2)CCO3)nc1 | -4.23
COCc1nc(C(=O)N2CCCC(n3ccnc3)C2)cs1 (stereo not drawn) | -10
O=C(c1ccoc1)N1CCC(NCc2cccnc2)CC1 | 4.06
O[C@H]1Cc2ccccc2[C@H]1n1ccnc1-c1cc2n(n1)CCNC2 | -2.39
Cc1cc(C(C)NCCN2CCC(N(C)C)CC2)c(C)s1 (stereo not drawn) | 12.7
O=C(C1=COCCO1)N1CC(Oc2nc3c(Cl)cccc3s2)C1 | 30.4
CC1=N[C@@]2(CC[C@@H]3CN(S(=O)(=O)CC(C)C)C[C@@H]32)C(=O)N1CC1CC1 | 8.18
CC(C)c1nc(C2CCCN2CC(=O)Nc2cccnc2)no1 (stereo not drawn) | -14
Cc1cc(C2CCCN(Cc3ncc(C(C)C)o3)C2)n[nH]1 (stereo not drawn) | -6.54
Cc1cc(C)n(CCN2CCN(C(=O)c3ccccc3Br)CC2)n1 | -2.29
COCCCNS(=O)(=O)c1cc(C)sc1C | -6.05
CNS(=O)(=O)c1ccc(CNC(=O)N(C)C(C)COC)cc1 (stereo not drawn) | -97.7
COc1cc(CNc2cnn(C(C)(C)C)c(=O)c2Cl)ccn1 | 1.57
O=c1cc(CN(Cc2ccco2)C2CC2)nc2ccc(Br)cn12 | -3.54
CCOc1ccccc1CCC(=O)Nc1c(C)nn(C)c1C | 14.5
NC(=O)c1cnc(NC2CCN(c3ccccn3)CC2)c(Cl)c1 | -6.48
Cc1cccc(N2CCc3ncnc(C4CC4)c3CC2)n1 | -10.3
NC(=O)c1ccc(OCCCN2CCC3(CC2)OCCCC3O)cc1 (stereo not drawn) | -1.53
Cc1cc(C(=O)N2CCN(c3nc4c(C(C)C)cccc4s3)CC2)on1 | 32
CCC(C)NC(=O)Nc1cccc(OC)c1 (stereo not drawn) | -5.26

SMILES | cytotoxicity at 70.5 h [%]
Cn1ncc2c(=O)[nH]c(CN3CCc4sccc4C3)nc21 | 13.1
CN(C)C(=O)c1ccc(C2CCCN2C(=O)c2ccccc2N(C)C)s1 (stereo not drawn) | -1.33
CCNC(=O)c1ccc(NC2CCOC3(CCCC3)C2)nn1 (stereo not drawn) | 17
COCCN1CC2(CCCN(C(=O)CCCc3cccs3)C2)CCC1=O (stereo not drawn) | 9.49
Cc1noc(C)c1CN1CCCC2(C1)CN(c1nccs1)CCO2 (stereo not drawn) | -2.38
CC(C)c1nc(CN2CCOCC2)cs1 | 7.98
CC(C)c1nsc(N2CCOC3(CCCC3)C2)n1 | -2.46
CS(=O)(=O)N1Cc2ccccc2CC2(CCN(Cc3ccccn3)C2)C1 (stereo not drawn) | -10.1
O=C(c1cccn1Cc1cccs1)N1CCSCC1 | 25
N#Cc1ccc(OCC(O)CN2CCN(c3nccs3)CC2)cc1 (stereo not drawn) | 13.7
NC(=O)c1cncc(N2CCN(Cc3ccc(F)cc3Cl)CC2)n1 | -3.73
O=c1[nH]c(-c2ccc(Cl)cc2)nc2c1CCNC2 | 12.1
CC(=O)N1CCC(C(=O)NC(C)c2cccc(OC(F)F)c2)CC1 (stereo not drawn) | 1.57
O=C(C1CCOC1)N1Cc2ccccc2OC2(CCOCC2)C1 (stereo not drawn) | -2.81
Cc1ccccc1CNC(=O)N1CC[C@@H]2CN(C)S(=O)(=O)[C@@H]2CC1 | 17.8
CCOC(=O)CSc1nnc([C@@H](N)CC(C)C)o1 | -6.75
Cc1n[nH]cc1CNC1CCN(c2ccc(F)cc2)CC1 | -8.94
Cc1nnc(CN(C)CC2CCCCC2)o1 | -11.8
c1coc(CN2Cc3nccn3CC(Cn3cncn3)C2)c1 (stereo not drawn) | 1.12
COc1cc(-c2cc(N)ncn2)cc(OC)c1OC | -6.28
CC(C)Cc1nc(CCn2cncn2)n(-c2ccc3c(c2)OCCO3)n1 | -18
